Data: the NIST ThermoML archive (doi:10.1016/j.fluid.2006.09.001)
Values joined by “and” are separate entries in the source; they are usually repeats but may differ in a detail not shown here. Equal entries are not always repeated.

Settings: Liquid, Transpiration method

COCCOc1ccccc1Br [1-bromo-2-(2-methoxyethoxy)benzene]
Settings	vapor or sublimation pressure
302.4 K	0.0011 kPa
307.4 K	0.00174 kPa
312.4 K	0.00268 kPa
315 K	0.00321 kPa
317.5 K	0.00391 kPa
319.5 K	0.00453 kPa and 0.00475 kPa
322.6 K	0.0062 kPa
324.6 K	0.00691 kPa
327.6 K	0.00867 kPa
332.7 K	0.01255 kPa
337.8 K	0.01854 kPa
343 K	0.02628 kPa
348.1 K	0.03518 kPa
353.2 K	0.04763 kPa
356.3 K	0.05583 kPa
358.2 K	0.06719 kPa
360.7 K	0.07401 kPa
361.8 K	0.07914 kPa
363.3 K	0.08516 kPa
366.8 K	0.1095 kPa
368.4 K	0.1199 kPa

COCCOCCOCCOc1ccccc1Br [1-bromo-2-(2-(2-(2-methoxyethoxy)ethoxy)ethoxy)benzene]
Settings	vapor or sublimation pressure [kPa]
333.2 K	6.1e-05
337.3 K	8.8e-05
339.3 K	0.000111
341.3 K	0.000132
343.4 K	0.000158
345.5 K	0.000188
347.5 K	0.000218
349.7 K	0.000272
351.7 K	0.000329
353.6 K	0.000382
355.7 K	0.000446
357.8 K	0.000555
359.8 K	0.000649
360.6 K	0.000704
362 K	0.000796
363 K	0.000826
365 K	0.000993
367.9 K	0.001244
369.9 K	0.001446

COCCOCCOc1ccccc1Br [1-bromo-2-(2-(2-methoxyethoxy)ethoxy)benzene]
Settings	vapor or sublimation pressure
310.4 K	9e-05 kPa
313.2 K	0.00012 kPa
317.4 K	0.00016 kPa
318.6 K	0.00019 kPa
320.3 K	0.00021 kPa
322.6 K	0.00026 kPa
324.3 K	0.0003 kPa
325.4 K	0.00036 kPa
327.6 K	0.00043 kPa
327.7 K	0.00043 kPa
328.3 K	0.00047 kPa and 0.00045 kPa
329 K	0.00045 kPa
332.4 K	0.00063 kPa
332.5 K	0.00062 kPa
332.7 K	0.00063 kPa
334.5 K	0.00076 kPa
335.4 K	0.00081 kPa
337.9 K	0.00096 kPa
339.1 K	0.00113 kPa
342 K	0.00135 kPa
343.5 K	0.00153 kPa
345 K	0.00167 kPa
346.5 K	0.00205 kPa
347.6 K	0.00219 kPa
348 K	0.0022 kPa
349.5 K	0.00252 kPa
350.1 K	0.00253 kPa
350.6 K	0.0028 kPa
353 K	0.00325 kPa
355.1 K	0.00383 kPa
356 K	0.0041 kPa
359.2 K	0.0052 kPa
360.3 K	0.00566 kPa
361.1 K	0.00611 kPa
363.3 K	0.007 kPa
365.2 K	0.00835 kPa
368.4 K	0.01027 kPa and 0.01025 kPa
370.8 K	0.01177 kPa
373.5 K	0.01407 kPa
